{
  "source": "patent US8916575B2",
  "about": "“Quinazoline derivatives for the treatment of viral infections and further diseases” (Janssen R&D Ireland, priority 2011, dated 2014)",
  "key": {"[1]": {"tested_on": "human TLR7 mutant (dIRR2)", "experiment": "TLR7 mutant (deletion in second leucine-rich repeat) NFκB-luc cellular reporter assay", "assay_type": "cell-based", "set-up": "unit not given here", "conditions": "HEK293 NFκB-luc reporter, mutant TLR7, 6 hours incubation", "experimental": "(§1) The ability of compounds to activate human TLR7 and/or TLR8 was assessed in a cellular reporter assay using HEK293 cells transiently transfected with a TLR7 or TLR8 expression vector and NFκB-luc reporter construct. In one instance the TLR expression construct expresses the respective wild type sequence or a mutant sequence comprising a deletion in the second leucine-rich repeat of the TLR.\n(§2) Briefly, HEK293 cells were grown in culture medium (DMEM supplemented with 10% FCS and 2 mM Glutamine). For transfection of cells in 10 cm dishes, cells were detached with Trypsin-EDTA, transfected with a mix of CMV-TLR7 or TLR8 plasmid (750 ng), NFκB-luc plasmid (375 ng) and a transfection reagent and incubated 24 hours at 37° C. in a humidified 5% CO2 atmosphere. Transfected cells were then detached with Trypsin-EDTA, washed in PBS and resuspended in medium to a density of 1.67×10^5 cells/mL. Thirty microliters of cells were then dispensed into each well in 384-well plates, where 10 μL of compound in 4% DMSO was already present. Following 6 hours incubation at 37° C., 5% CO2, the luciferase activity was determined by adding 15 μl of Steady Lite Plus substrate (Perkin Elmer) to each well and readout performed on a ViewLux ultraHTS microplate imager (Perkin Elmer). Dose response curves were generated from measurements performed in quadruplicates. Lowest effective concentrations (LEC) values, defined as the concentration that induces an effect which is at least two fold above the standard deviation of the assay, were determined for each compound."}, "human TLR8": {"biological_target": "T1, human TLR8 (Homo sapiens, UniProt Q9NR97)", "T1 construct": "expressed in transfected cells; host or cells: HEK293", "T1 sequence (Q9NR97 27-1041)": "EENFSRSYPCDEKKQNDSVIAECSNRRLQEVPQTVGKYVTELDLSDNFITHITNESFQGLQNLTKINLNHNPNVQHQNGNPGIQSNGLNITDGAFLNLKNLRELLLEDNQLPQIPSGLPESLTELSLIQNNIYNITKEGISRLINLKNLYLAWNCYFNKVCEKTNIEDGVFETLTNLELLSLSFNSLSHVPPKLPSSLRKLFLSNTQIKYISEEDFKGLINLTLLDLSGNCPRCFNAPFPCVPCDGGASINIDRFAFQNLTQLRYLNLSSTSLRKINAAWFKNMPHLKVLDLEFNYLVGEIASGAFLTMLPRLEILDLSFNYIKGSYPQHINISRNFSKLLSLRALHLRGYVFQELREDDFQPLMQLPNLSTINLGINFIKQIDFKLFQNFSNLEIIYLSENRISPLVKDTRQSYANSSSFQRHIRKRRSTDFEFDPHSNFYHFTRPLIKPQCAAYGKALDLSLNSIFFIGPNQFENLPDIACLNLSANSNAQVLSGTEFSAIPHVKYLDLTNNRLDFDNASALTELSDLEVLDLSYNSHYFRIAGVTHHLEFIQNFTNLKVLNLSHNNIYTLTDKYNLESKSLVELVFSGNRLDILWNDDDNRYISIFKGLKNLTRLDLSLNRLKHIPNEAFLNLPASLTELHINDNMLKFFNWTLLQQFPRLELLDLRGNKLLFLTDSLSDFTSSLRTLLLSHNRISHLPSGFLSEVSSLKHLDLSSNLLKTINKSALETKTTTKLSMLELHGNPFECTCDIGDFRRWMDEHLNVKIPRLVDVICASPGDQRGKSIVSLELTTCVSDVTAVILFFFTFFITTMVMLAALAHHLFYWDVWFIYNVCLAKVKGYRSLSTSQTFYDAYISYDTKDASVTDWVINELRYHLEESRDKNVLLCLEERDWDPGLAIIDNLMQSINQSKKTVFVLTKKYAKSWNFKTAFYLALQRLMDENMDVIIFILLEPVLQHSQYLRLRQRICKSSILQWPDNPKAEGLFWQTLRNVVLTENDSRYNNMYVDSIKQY", "experiment": "TLR8 wild type NFκB-luc cellular reporter assay", "assay_type": "cell-based", "set-up": "unit not given here", "conditions": "HEK293 NFκB-luc reporter, 6 hours incubation", "experimental": "as §1, §2"}, "[2]": {"tested_on": "human TLR8 mutant (dIRR2)", "experiment": "TLR8 mutant (deletion in second leucine-rich repeat) NFκB-luc cellular reporter assay", "assay_type": "cell-based", "set-up": "unit not given here", "conditions": "HEK293 NFκB-luc reporter, mutant TLR8, 6 hours incubation", "experimental": "as §1, §2"}, "[3]": {"tested_on": "HCV replicon (Huh-7 luc/neo cells)", "experiment": "Suppression of HCV replicon replication by conditioned media from PBMC", "assay_type": "cell-based, HCV type 1b", "conditions": "Hepatitis C virus, compound concentration applied to PBMCs giving 50% reduction of replicon luciferase activity, read-out: PBMC-HUH7_EC50", "experimental": "Activation of human TLR7 results in robust production of interferon by plasmacytoid dendritic cells present in human blood. The potential of compounds to induce interferon was evaluated by looking at the antiviral activity in the HCV replicon system upon incubation with conditioned media from peripheral blood mononuclear cells (PBMC). The HCV replicon assay is based on a bicistronic expression construct, as described by Lohmann et al. (Science (1999) 285: 110-113; Journal of Virology (2003) 77: 3007-15 3019) with modifications described by Krieger et al. (Journal of Virology (2001) 75: 4614-4624). The assay utilized the stably transfected cell line Huh-7 luc/neo harboring an RNA encoding a bicistronic expression construct comprising the wild type NS3-NS5B regions of HCV type 1b translated from an Internal Ribosome Entry Site (IRES) from encephalomyocarditis virus (EMCV), preceded by a reporter gene (Firefly-luciferase) and a selectable marker gene (neoR, neomycine phosphotransferase). The construct is flanked by 5′ and 3′ NTRs (non-translated regions) from HCV type 1b. Continued culture of the replicon cells in the presence of G418 (neoR) is dependent on the replication of the HCV RNA. The stably transfected replicon cells that replicate HCV RNA autonomously and to high levels, encoding inter alia luciferase, were used for profiling of the conditioned cell culture media.\nBriefly, PBMCs were prepared from buffy coats of at least two donors using a standard Ficoll centrifugation protocol. Isolated PBMCs were resuspended in RPMI medium supplemented with 10% human AB serum and 2×10^5 cells/well were dispensed into 384-well plates containing compounds (70 μL total volume). After overnight incubation, 10 μL of supernatant was transferred to 384-well plates containing 2.2×10^3 replicon cells/well in 30 μL (plated the day before). Following 24 hours of incubation, replication was measured by assaying luciferase activity using 40 μL/well Steady Lite Plus substrate (Perkin Elmer) and measured with ViewLux ultraHTS microplate imager (Perkin Elmer). The inhibitory activity of each compound on the Huh7-luc/neo cells were reported as EC50 values, defined as the compound concentration applied to the PBMCs resulting in a 50% reduction of luciferase activity which in turn indicates the degree of replication of the replicon RNA on transfer of a defined amount of PBMC culture medium. Recombinant interferon α-2a (Roferon-A) was used as a standard control compound."}},
  "data": [
    {"smiles": "CCC[C@@H](CO)Nc1nc(N)nc2cc(OC)c(OC)cc12", "note": "[Compound 6]", "values": [
      {"measurement": "TLR7-dIRR2_LEC", "setting": "[1]", "value": 3.4},
      {"measurement": "TLR8-wt_LEC", "setting": "human TLR8", "value": 4.4},
      {"measurement": "TLR8-dIRR2_LEC", "setting": "[2]", "value": 2.3},
      {"measurement": "EC50", "setting": "[3]", "value": 3000, "unit": "nM"}
    ]}
  ]
}
